Some test systems named below: ACHN renal; HCT-15 colon; KM12 colon; NCI-H522 lung; OVCAR-4 ovarian; RPMI-8226 leukemia; SF-295 CNS; SNB-19 CNS; SW-620 colon; UACC-62 melanoma.
Experiment in all cases: growth of human tumour cells (NCI), 48 h

The structures appear in SMILES notation.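 Cultured in 96-well plates, cells were exposed to test compound for 48 hours across five concentrations. Abbreviation: GI50, concentration required for 50% inhibition of growth. TGI denotes the concentration required for complete inhibition of growth.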

Regarding `O=C(O)CC(C(=O)O)C1c2ccccc2-c2ccccc21` (configuration not stated), the TGI in the assay with ACHN renal, with HCT-15 colon, with KM12 colon, in the assay with NCI-H522 lung, in the assay on OVCAR-4 ovarian and with RPMI-8226 leukemia was greater than 100 µM in each case. The TGI with SF-295 CNS, with SNB-19 CNS, in the assay with SW-620 colon and in the assay on UACC-62 melanoma was greater than 100 µM in each case.

As to `CC(C)=CCc1c(O)ccc2c1OC1c3ccc(O)c(CC=C(C)C)c3OCC21` (configuration not stated), the TGI with HCT-15 colon worked out at 18.1 µM; in the assay on KM12 colon, 33.7 µM; with NCI-H522 lung, 25.5 µM; in the assay with OVCAR-4 ovarian it was 23.6 µM; in the assay with RPMI-8226 leukemia, 17.1 µM; with SF-295 CNS, 24.3 µM. In addition, the TGI came to 27.6 µM in the assay with SNB-19 CNS, 22.5 µM in the assay on SW-620 colon and 18.7 µM in the assay with UACC-62 melanoma.

For the molecule `CN1CCC(C(=O)NNc2ccccc2)CC1`, the TGI is greater than 68.9 µM in the assay with ACHN renal; greater than 51.1 µM in the assay on HCT-15 colon; greater than 77.8 µM in the assay on KM12 colon; greater than 100 µM in the assay with NCI-H522 lung; greater than 100 µM in the assay with OVCAR-4 ovarian; greater than 100 µM in the assay on RPMI-8226 leukemia. Moreover, the TGI was 33 µM in the assay on SF-295 CNS, greater than 100 µM in the assay on SNB-19 CNS, greater than 63.3 µM with SW-620 colon and greater than 33.7 µM in the assay on UACC-62 melanoma.

With `N=C(N)c1ccc(-c2ccc(-c3cncc4ccccc34)s2)cc1F`, the GI50 in the assay with HCT-15 colon is 1750 nM; in the assay with KM12 colon, 1830 nM; in the assay on NCI-H522 lung, 2200 nM; with RPMI-8226 leukemia, 1640 nM; in the assay on SF-295 CNS, 1720 nM; in the assay with SW-620 colon, 1690 nM. Also, the TGI in the assay on HCT-15 colon was 3.64 µM; in the assay on KM12 colon, 3.51 µM; in the assay on NCI-H522 lung, 5.56 µM; in the assay with RPMI-8226 leukemia, 4.49 µM; in the assay with SF-295 CNS, 3.27 µM; in the assay on SW-620 colon, 3.76 µM.

Turning to `COc1cc(C(C)(C)C)cc(OC)c1C(O)(c1c(OC)cc(C(C)(C)C)cc1OC)c1c(OC)cc(C(C)(C)C)cc1OC`, the GI50 in the assay with ACHN renal was 284 nM; in the assay with KM12 colon, 349 nM; with NCI-H522 lung it was 237 nM; with OVCAR-4 ovarian, 307 nM; in the assay on RPMI-8226 leukemia, 233 nM; in the assay with SF-295 CNS it was 221 nM. Also, the GI50 in the assay with SW-620 colon is 406 nM. Further, the TGI was 0.987 µM in the assay with ACHN renal; 1.05 µM with KM12 colon; 0.768 µM in the assay with NCI-H522 lung; 1.06 µM in the assay on OVCAR-4 ovarian; 0.725 µM with RPMI-8226 leukemia; 0.479 µM with SF-295 CNS. For the same molecule, the TGI in the assay on SW-620 colon was found to be 1.55 µM.

With `FC(F)(F)c1ccc2c(c1)nc(Cc1ccc(Cl)c(Cl)c1)n2CC1CCCN2CCCCC12` (configuration not stated), the TGI is greater than 100 µM in the assay with ACHN renal; greater than 100 µM with HCT-15 colon; greater than 100 µM with KM12 colon; 30.8 µM in the assay on NCI-H522 lung; greater than 100 µM in the assay with OVCAR-4 ovarian; greater than 100 µM in the assay with RPMI-8226 leukemia. Also, the TGI in the assay on SF-295 CNS was 51.7 µM; in the assay with SNB-19 CNS it was 53.1 µM; in the assay on SW-620 colon, greater than 100 µM; in the assay on UACC-62 melanoma, 30.2 µM.

On to `CCN=C=NCCCN(C)C`, for which the TGI in the assay with ACHN renal, in the assay on HCT-15 colon, with KM12 colon, with NCI-H522 lung, with OVCAR-4 ovarian and in the assay on RPMI-8226 leukemia was greater than 100 µM in each case. The TGI with SF-295 CNS, in the assay with SNB-19 CNS, with SW-620 colon and with UACC-62 melanoma was greater than 100 µM each time.

As for `C=C(CN(C)C)C(=O)c1ccc(C)cc1C`, the TGI is 19.3 µM with ACHN renal; 12.5 µM in the assay with HCT-15 colon; 31 µM with KM12 colon; 14.4 µM in the assay on NCI-H522 lung; 33.5 µM with OVCAR-4 ovarian; greater than 100 µM with RPMI-8226 leukemia. Besides, the TGI with SF-295 CNS stood at 31.6 µM; in the assay on SNB-19 CNS, 57.7 µM; in the assay on SW-620 colon it was 13.5 µM; in the assay on UACC-62 melanoma, 31.5 µM.

For the molecule `O=C(/C=c1\oc(=O)/c(=C/C(=O)c2ccc(Cl)cc2)oc1=O)c1ccc(Cl)cc1`, the TGI was greater than 100 µM in the assay with ACHN renal; greater than 100 µM with HCT-15 colon; greater than 100 µM with KM12 colon; 72.9 µM in the assay on NCI-H522 lung; greater than 100 µM with OVCAR-4 ovarian; greater than 100 µM in the assay with RPMI-8226 leukemia. For the same molecule, the TGI in the assay with SF-295 CNS, in the assay on SNB-19 CNS and with UACC-62 melanoma was greater than 100 µM each time.

For `C/C1=N\NC(=O)c2ccccc2C(=O)N/N=C(\C)c2cccc1n2.O=[N+]([O-])[O-].[Zn+2]`, the TGI with ACHN renal, in the assay with HCT-15 colon, in the assay on KM12 colon, in the assay on NCI-H522 lung, in the assay on OVCAR-4 ovarian and with RPMI-8226 leukemia was greater than 100 µM in each case. The TGI with SF-295 CNS, in the assay with SNB-19 CNS, in the assay on SW-620 colon and in the assay on UACC-62 melanoma was greater than 100 µM throughout.

On to `COc1ccc(-c2nn(-c3ccc(NC(=O)Nc4ccc(Cl)c(Cl)c4)cc3)cc2-c2ccncc2)cc1Cl`, for which the GI50 in the assay on ACHN renal was 2270 nM; in the assay on HCT-15 colon, 1700 nM; with KM12 colon it was 2130 nM; in the assay with NCI-H522 lung, 1390 nM; with OVCAR-4 ovarian, 1790 nM; in the assay with RPMI-8226 leukemia it was 540 nM. Besides, the GI50 was 2210 nM in the assay on SF-295 CNS, 3.36 µM in the assay on SNB-19 CNS, 3310 nM with SW-620 colon and 2100 nM in the assay on UACC-62 melanoma. For the same molecule, the TGI in the assay on ACHN renal was greater than 100 µM; in the assay on HCT-15 colon, greater than 100 µM; with KM12 colon, greater than 100 µM; in the assay on NCI-H522 lung, 5.66 µM; with OVCAR-4 ovarian, greater than 100 µM; in the assay on RPMI-8226 leukemia it was 3.18 µM. Also, the TGI in the assay with SF-295 CNS is greater than 100 µM; in the assay on SNB-19 CNS, greater than 100 µM; in the assay on SW-620 colon, greater than 100 µM; in the assay on UACC-62 melanoma it was 7.33 µM.

On to `c1ccc(-n2cnnc2-c2nsc3ccccc23)cc1`, for which the TGI in the assay with ACHN renal, in the assay with HCT-15 colon, with KM12 colon, in the assay on OVCAR-4 ovarian, in the assay on RPMI-8226 leukemia and with SNB-19 CNS was greater than 100 µM each time. Also, the TGI with SW-620 colon and in the assay with UACC-62 melanoma was greater than 100 µM in each case.

These data come from PubChem BioAssay (NCI).
